Reference: publication PMC8131325 (The Journal of Biological Chemistry, 2021)
Where two headings read alike, the source gives them in different places. Ends that are not written are not given here.

Experiments:
[1] = target: T1, FABP3 (Homo sapiens, UniProt P05413); experiment: Quartz crystal microbalance (QCM) binding assay to immobilized FABP3; settings: for kon / koff: QCM, immobilized His6-FABP3, 50 mM Tris-HCl pH 7.4, room temperature, kobs = koff + kon[αSyn]
T1 construct: made in house; host or cells: E. coli BLR(DE3), pET28a-derived vector (NdeI/XhoI), synthetic gene (Invitrogen GeneArt)
T1 sequence (P05413 whole entry): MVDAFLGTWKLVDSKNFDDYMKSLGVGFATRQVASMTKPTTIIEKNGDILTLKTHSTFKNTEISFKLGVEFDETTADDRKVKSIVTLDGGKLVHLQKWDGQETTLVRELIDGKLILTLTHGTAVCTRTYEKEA
Protocol: The binding affinities between αSyn and FABP3 were estimated directly using an Affinix QNμ quartz crystal microbalance apparatus operating at room temperature. Samples of His6-FABP3 were affixed to the gold-plated quartz sensor by nickel chelating binding groups as follows. Before binding, the gold sensor was washed with 1% SDS and piranha solution (H2SO4:H2O2 = 3:1). Next, 100 μl of 0.5 mM 3, 3’-dithiobis[N-(5-amino-5-carboxypentyl)propionamide-N’,N’-diacetic acid]dihydrochloride (C₂-NTA, Dojindo) solution was applied and incubated for 10 min at room temperature. This solution was rinsed with Milli-Q water, and 500 μl of Ni+ solution (20 mM Hepes-NaOH buffer, pH 7.5, containing 150 mM NaCl,50 mM EDTA, and 10 mM NiSO4) was added. After a 10 min incubation, the sensor was washed again with Milli-Q, then a 0.1 μM sample of His6-FABP3 in 50 mM Tris-HCl buffer, pH 7.4 was applied. The signal from the quartz sensor was then monitored over a 1 s interval with gentle stirring. To initiate the data sampling run, samples of αSyn with varying concentrations were then applied to the sensor. After each experimental run, the bound His6-FABP3 was removed by the application of 500 μl imidazole solution (0.4 M imidazole/20 mM Hepes pH 7.5/150 mM NaCl) for 30 min, followed by a Milli-Q rinse, and reattachment of Ni-ion and fresh His6-FABP3 to reset the sensor to its original state. Analysis of the raw traces to obtain quantitative affinity values were performed using the software package (AQUA 2.0) provided by the manufacturer, according to the following linear relationship between the observed rate constant kobs and the concentration of αSyn; kobs = koff + kon[αSyn]. Estimated kon and koff values were then used to determine the Kd.

[2] = system: N2a cells; experiment: Cell viability by Tali Image-Based Cytometer (Calcein-AM/ethidium homodimer); parameters: species or system Mouse; settings: protein co-expressed with FABP3 in N2a cells, 30 μM 6-OHDA 24 h
Protocol: Cell viability measurements using a Tali Image-Based Cytometer (Thermo Fisher Scientific) were performed according to previous methods ([59]). After 24 h incubation, media was changed to 0% FBS+MEM containing 30 μM 6-hydroxydopamine and incubated for 24 h. Statistical comparisons were performed by Welch’s t test.

[3] = Dynamic light scattering of fibril-forming samples; type: physicochemical; settings: DLS, 25 °C
Protocol: Dynamic light scattering measurements were performed on an Otsuka Electronics FDLS-3000 monitor with a laser wavelength of 532 nm at an observation angle of 90°. Sample protein concentrations were adjusted to 0.3 mg/ml, and a sample volume of 2 ml was used for measurements. Samples were filtered before measurement.

[4] = target: T2, FABP3 F16S (Homo sapiens, UniProt P05413, F17S); experiment: QCM binding assay to immobilized FABP3 F16S mutant
T2 construct: made in house
T2 sequence (P05413 whole entry F17S): as the sequence (P05413 whole entry) above, with F17S counted along it
Protocol: The binding affinities between αSyn and FABP3 were estimated directly using an Affinix QNμ quartz crystal microbalance apparatus operating at room temperature. Samples of His6-FABP3 were affixed to the gold-plated quartz sensor by nickel chelating binding groups as follows. Before binding, the gold sensor was washed with 1% SDS and piranha solution (H2SO4:H2O2 = 3:1). Next, 100 μl of 0.5 mM 3, 3’-dithiobis[N-(5-amino-5-carboxypentyl)propionamide-N’,N’-diacetic acid]dihydrochloride (C₂-NTA, Dojindo) solution was applied and incubated for 10 min at room temperature. This solution was rinsed with Milli-Q water, and 500 μl of Ni+ solution (20 mM Hepes-NaOH buffer, pH 7.5, containing 150 mM NaCl,[…] 10 mM NiSO4) was added. After a 10 min incubation, the sensor was washed again with Milli-Q, then a 0.1 μM sample of His6-FABP3 in 50 mM Tris-HCl buffer, pH 7.4 was applied. The signal from the quartz sensor was then monitored over a 1 s interval with gentle stirring. To initiate the data sampling run, samples of αSyn with varying concentrations were then applied to the sensor. After each experimental run, the bound His6-FABP3 was removed by the application of 500 μl imidazole solution (0.4 M imidazole/20 mM Hepes pH 7.5/150 mM NaCl) for 30 min, followed by a Milli-Q rinse, and reattachment of Ni-ion and fresh His6-FABP3 to reset the sensor to its original state. Analysis of the raw traces to obtain quantitative affinity values were performed using the software package (AQUA 2.0) provided by the manufacturer, according to the following linear relationship between the observed rate constant kobs and the concentration of αSyn; kobs = koff + kon[αSyn]. Estimated kon and koff values were then used to determine the Kd.

[5] = system: αSyn; experiment: Thio-T fluorescence assay of αSyn fibril formation with added protein; type: biochemical, Human; settings: αSyn 69 μM, 50 mM Tris-HCl pH 7.4, 150 mM NaCl, 37 °C, agitation
Protocol: The formation of αSyn fibrils were detected in fluorescence assays using Thio-T. Samples (1 mg/ml; 69 μM) of either WT or mutant αSyn were incubated in Thio-T assay buffer (50 mM Tris-HCl, pH 7.4, containing 150 mM NaCl and 20 μM Thio-T) with or without additional FABP3 and/or αSyn-derived oligopeptides. One hundred 50 μl aliquots were incubated in 96-well plates (8 × 12-well plate; Greiner) at 37 °C using an ARVOX4 (PerkinElmer) fluorescent plate reader with continuous agitation. The fluorescence signal of the samples (Ex: 440 nm, Em: 486 nm) were measured at 15 min intervals. In experiments where the effects of delayed FABP3 addition were probed (Fig. 1C), an equimolar concentration of FABP3 was added to the respective wells after an initial agitation regimen of 3, 8, or 24 h. Data shown are the average of data from three 150 μl samples, and error bars indicate standard errors of the mean.

Compound | kon [1] | koff ([1]; read-out: koff) [s⁻¹] | further results
EEGFQDWEPEA [αSynP130-140 Y133F/Y136W] | 3.2 × 10^5 M^−1・s^−1 | 0.0019 | Kd [1]: 6.1 nM
EEGFQDYEPEA [αSynP130-140Y133F] | 7.5 × 10^5 M^−1・s^−1 | 0.0015 | –
α-synuclein [αSyn] | 6.4 × 10^5 M^−1・s^−1 | – | Alive cells [2]: 77%; Dead cells [2]: 0%; Dying cells (co-stained with Calcein-AM and EthD-1) ([2]; control 12%): 23%; Kd ([1]; QCM (Affinix QNμ), His6-FABP3 immobilized via Ni-NTA on gold sensor, 50 mM Tris-HCl pH 7.4, room temperature, Kd determined from estimated kon and koff): 7.2 nM; koff [1]: 0.0046 s⁻¹; average particle size ([3]; αSyn alone, absence of FABP3, after 1200 min incubation): 6 μm; average particle size ([3]; αSyn in the presence of FABP3, after 1200 min incubation): 0.63 μm; binding to FABP3 F16S (in words) [4]: unable to bind
EEGYQDWEPEA [αSynP130-140Y136W] | 3.8 × 10^5 M^−1・s^−1 | 0.0024 | –
EEGYQDFEPEA [αSynP130-140Y136F] | 4.8 × 10^5 M^−1・s^−1 | 0.0037 | –
EEGFQDFEPEA [αSynP130-140 Y133F/Y136F] | 5.4 × 10^5 M^−1・s^−1 | 0.0011 | –
bovine serum albumin | – | – | effect of added protein on αSyn fibril formation [5]: no significant suppressive effects in fibrillation of αSyn
lysozyme | – | – | effect of added protein on αSyn fibril formation [5]: no significant suppressive effects in fibrillation of αSyn
EEGWQDWEPEA [αSynP130-140Y133W/Y136W] | 2.4 × 10^5 M^−1・s^−1 | 0.0015 | –
CCCCC/C=C\C/C=C\C/C=C\C/C=C\CCCC(=O)O [arachidonic acid, reference compound] | 0.8 × 10^5 M^−1・s^−1 | 0.0006 | Kd [1]: 6.8 nM; Kd [4]: 2090 nM; koff [4]: 0.0047 s⁻¹; kon [4]: 0.02 × 10^5 M^−1・s^−1
EEGYQDYEPEA [αSynP130-140] | 2.0 × 10^5 M^−1・s^−1 | 0.0012 | Kd [1]: 6.1 nM
